From patent US9546157B2, “Asymmetric piperidinyl-substituted ureas as medicines” (Helsinn Healthcare SA, priority 2014, dated 2017)
pEC50, pIC50: −log10 of the molar value.

Tests used:
GHSR1a [1] = molecular target: T1, GHSR1a (Homo sapiens, UniProt Q92847); assay: Calcium FLIPR assay, GHSR-1a antagonism (reduction of ghrelin response); assay type: cell-based; conditions: HEK293/GHSR1a cells, ghrelin 10 nM
T1 construct: expressed in transfected cells; host or cells: HEK293
Outline: (§1)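 HEK293 cells expressing GHSR1a, seeded 24 hr earlier and loaded with calcium dye for 30-60 min at room temperature or 37° C, were read by FLIPR fluorescence. Agonism: compound added at t=20 sec, calcium followed 2 minutes. Antagonism: compound plus ghrelin (10 nM) at t=20 sec; potency from reduction of ghrelin response.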

GHSR1a [2] = molecular target: T1, GHSR1a; assay: Calcium FLIPR assay, GHSR-1a agonism; assay type: cell-based; parameters: Emax: unit not given here; conditions: HEK293/GHSR1a cells
Outline: as §1

C57BL/6J mice = assay: Food intake test in mouse (GHSR1a antagonists); assay type: in vivo; conditions: for inhibition in vivo at 10 mg/kg: ip, 1 h, i.p. 10 mg/kg
Method: Male C57BL/6J mice, 18-22 g body weight, were fasted overnight (16 h before compound administration) and placed in a regular light dark cycle (6:00-18:00 light/18:00-6:00 dark). After 1 wk acclimation, animals were sorted into two groups (n=6 each, 2 per cage) based on body weight. Animals in group one were be treated with vehicle and animals in group 2 were treated with the test agent (n=6 for each group). The cumulative food intake was evaluated at 1, 2, 4, 8 and 24 hrs after drug or vehicle treatment. Food intake was measured by subtracting uneaten food from the initial premeasured food.

[3] = Metabolic Stability (H = Human); assay type: in vitro ADME
[4] = Metabolic Stability (M = Mouse); assay type: in vitro ADME
[5] = PO 10 mg/kg + ANA (ANAM) 30 mg/kg mice

T1 sequence (Q92847 whole entry): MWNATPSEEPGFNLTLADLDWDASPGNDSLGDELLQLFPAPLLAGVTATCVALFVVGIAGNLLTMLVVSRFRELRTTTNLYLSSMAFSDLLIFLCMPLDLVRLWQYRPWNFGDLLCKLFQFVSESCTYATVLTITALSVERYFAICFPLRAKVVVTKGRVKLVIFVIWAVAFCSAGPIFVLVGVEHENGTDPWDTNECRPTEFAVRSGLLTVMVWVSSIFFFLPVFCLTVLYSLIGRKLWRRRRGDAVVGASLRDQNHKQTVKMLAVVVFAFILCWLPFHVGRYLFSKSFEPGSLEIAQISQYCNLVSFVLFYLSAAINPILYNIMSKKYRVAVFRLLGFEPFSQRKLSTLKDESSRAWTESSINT

pIC50 (GHSR1a [1])	pEC50 (GHSR1a [2])	Emax (GHSR1a [2])	Metabolic Stability H [3]	Metabolic Stability M [4]	Structure (SMILES)	Mouse Food Intake, result in words (C57BL/6J mice; [5])	inhibition in vivo at 10 mg/kg (C57BL/6J mice; Mus musculus)	inhibition in vivo at 30 mg/kg (C57BL/6J mice; Mus musculus, po, 4 h, 30 mg/kg PO fasted mice)	Mouse Food Intake, result in words (C57BL/6J mice; 30 mg/kg PO fasted mice)	Mouse Food Intake increase, activity up to (C57BL/6J mice; 30 mg/kg PO mice)	Mouse Food Intake % increase (C57BL/6J mice; 2 h, 30 mg/kg PO mice)
6.93	< 4.52	–	–	–	CC(NC(=O)N(C)C1CCN(C)CC1)c1ccc(-c2csc(C3CC3)n2)c(Cl)c1Cl (stereo not shown) [Compound H0841, 3-(1-(2,3-dichloro-4-(2-cyclopropylthiazol-4-yl)phenyl)ethyl)-1-methyl-1-(1-methylpiperidin-4-yl)urea]	PO 10 mg/kg + ANAM 30 mg/kg mice: NSE	–	–	–	–	–
–	8.52	2100	Medium H Medium M	Medium H Medium M	CC(NC(=O)N(C)C1CCN(C)CC1)c1ccc(-c2cccs2)c(Cl)c1Cl (single isomer, unassigned) [Compound H0563, 3-(1-(2,3-dichloro-4-(thiophen-2-yl)phenyl)ethyl)-1-methyl-1-(1-methylpiperidin-4-yl)urea]	–	65%	–	–	–	–
8.77	8.46	1915	–	–	CC(NC(=O)N(C)C1CCN(C)CC1)c1ccc(C#CC2CC2)c(Cl)c1Cl (single isomer, unassigned) [Compound H0818, 3-(1-(2,3-dichloro-4-(cyclopropylethynyl)phenyl)ethyl)-1-methyl-1-(1-methylpiperidin-4-yl)urea]	–	–	22%	–	–	–
7.19	6.85	1419	–	–	CC(NC(=O)N(C)C1CCN(C)CC1)c1ccc(C#CC2CC2)c(Cl)c1Cl (single isomer, unassigned) [Compound H0819, 3-(1-(2,3-dichloro-4-(cyclopropylethynyl)phenyl)ethyl)-1-methyl-1-(1-methylpiperidin-4-yl)urea]	–	–	–	30 mg/kg PO fasted mice NSE	–	–
8.22	< 4.52	–	High H High M	High H High M	CCN(C(=O)N[C@@H](C)c1ccc(-c2cnccn2)c(Cl)c1Cl)C1CCN(C)CC1 [Compound H0889, (S)-3-(1-(2,3-dichloro-4-(pyrazin-2-yl)phenyl)ethyl)-1-ethyl-1-(1-methylpiperidin-4-yl)urea]	–	–	–	–	–	–
7.89	< 4.52	–	Poor H Poor M	Poor H Poor M	COC(=O)c1ccc(CN(C(=O)NC(C)c2ccc(-c3cn[nH]c3)c(Cl)c2Cl)C2CCN(C)CC2)cc1 (stereo not shown) [Compound H0537, methyl 4-((3-(1-(2,3-dichloro-4-(1H-pyrazol-4-yl)phenyl)ethyl)-1-(1-methylpiperidin-4-yl)ureido)methyl)benzoate]	–	–	–	–	–	–
7.05	< 4.52	–	High	Medium	CC(NC(=O)N(C)C1CCN(C)CC1)c1ccc(-c2cncc(CO)c2)c(Cl)c1Cl (stereo not shown) [Compound H0636, 3-(1-(2,3-dichloro-4-(5-(hydroxymethyl)pyridin-3-yl)phenyl)ethyl)-1-methyl-1-(1-methylpiperidin-4-yl)urea]	–	–	–	–	–	–
7.03	< 4.52	–	–	–	C[C@@H](NC(=O)N(C)C1CCN(C)CC1)c1ccc(-c2cnccn2)c(Cl)c1Cl [Compound H0817, (R)-3-(1-(2,3-dicholoro-4-(pyrazin-2-yl)phenyl)ethyl)-1-methyl-1-(1-methylpiperidin-4-yl)urea]	–	–	–	30 mg/kg PO fasted mice NSE	–	–
8.40	7.68	1340	–	–	C[C@H](NC(=O)N(C)C1CCN(C)C1)c1ccc(C#CC2CC2)c(Cl)c1Cl (stereo partly drawn) [Compound H0838, 3-((S)-1-(2,3-dichloro-4-(cyclopropylethynyl)phenyl)ethyl)-1-methyl-1-(1-methylpyrrolidin-3-yl)urea]	–	–	–	–	≤ 8 h	205%
8.30	8.22	1923	–	–	CN1CCC(N(O)C(=O)NC(CC2CC2)c2ccc(-c3cnccn3)c(Cl)c2Cl)CC1 (single isomer, unassigned) [Compound H0782, 3-(2-cyclopropyl-1-(2,3-dichloro-4-(pyrazin-2-yl)phenyl)ethyl)-1-hydroxy-1-(1-methylpiperidin-4-yl)urea]	–	93%	–	–	–	–
5.80	< 4.52	–	Medium	High	CN1CCC(N(C)C(=O)N[C@@H](c2ccc(-c3cnccn3)c(Cl)c2Cl)C(F)(F)F)CC1 [Compound H0899, (S)-3-(1-(2,3-dichloro-4-(pyrazin-2-yl)phenyl)-2,2,2-trifluoroethyl)-1-methyl-1-(1-methylpiperidin-4-yl)urea]	–	–	–	–	–	–
7.47	< 4.52	–	Medium H Medium M	Medium H Medium M	CC(NC(=O)N(C)C1CCN(C)CC1C)c1ccc(-c2cn[nH]c2)c(Cl)c1Cl (stereo not shown) [Compound H0528, 3-(1-(2,3-dichloro-4-(1H-pyrazol-4-yl)phenyl)ethyl)-1-(1,3-dimethylpiperidin-4-yl)-1-methylurea]	–	–	–	–	–	–
8.52	7.82	–	High H High M	High H High M	CC(NC(=O)N(C)C1CCN(C)CC1)c1ccc(CO)c(Cl)c1Cl (stereo not shown) [Compound H0633, 3-(1-(2,3-dichloro-4-(hydroxymethyl)phenyl)ethyl)-1-methyl-1-(1-methylpiperidin-4-yl)urea]	–	–	–	–	–	–
8.22	7.55	2822	Medium H Medium M	Medium H Medium M	CN1CCC(N(C)C(=O)NC(C#N)c2ccc(-c3ccsc3)c(Cl)c2Cl)CC1 (stereo not shown) [Compound H0644, 3-(cyano(2,3-dichloro-4-(thiophen-3-yl)phenyl)methyl)-1-methyl-1-(1-methylpiperidin-4-yl)urea]	–	–	–	–	–	–
8.30	< 4.52	–	Medium H Medium M	Medium H Medium M	CN1CCC(N(C)C(=O)NC(CC2CC2)c2ccc(-c3ccc(C(N)=O)s3)c(Cl)c2Cl)CC1 (stereo not shown) [Compound H0728, 5-(2,3-dichloro-4-(2-cyclopropyl-1-(3-methyl-3-(1-methylpiperidin-4-yl)ureido)ethyl)phenyl)thiophene-2-carboxamide]	–	–	–	–	–	–
7.11	< 4.52	–	Very low	Very Low	CC(NC(=O)N(C)C1CCN(C)CC1)c1ccc(-c2cncc(C=O)c2)c(Cl)c1Cl (stereo not shown) [Compound H0642, 3-(1-(2,3-dichloro-4-(5-formylpyridin-3-yl)phenyl)ethyl)-1-methyl-1-(1-methylpiperidin-4-yl)urea]	–	–	–	–	–	–
7.33	< 4.52	–	–	–	CC(NC(=O)N(C)C1CCN(C)CC1)c1ccc(-c2nccnc2F)c(Cl)c1Cl (stereo not shown) [Compound H0840]	PO 10 mg/kg + ANA 30 mg/kg mice: NSE	–	–	–	–	–
7.12	< 4.52	–	Medium	High	COc1ccc(-c2ccc(C(C)NC(=O)N(C)C3CCN(C)CC3)c(Cl)c2Cl)cc1 (stereo not shown) [Compound H0508, 3-(1-(2,3-dichloro-4′-methoxy-[1,1′-biphenyl]-4-yl)ethyl)-1-methyl-1-(1-methylpiperidin-4-yl)urea]	–	–	–	–	–	–
8.52	8.05	4714	High H High M	High H High M	CC(NC(=O)N(C)C1CCN(C)CC1)c1ccc(CC#N)c(Cl)c1Cl (stereo not shown) [Compound H0630, 3-(1-(2,3-dichloro-4-(cyanomethyl)phenyl)ethyl)-1-methyl-1-(1-methylpiperidin-4-yl)urea]	–	–	–	–	–	–
7.28	< 4.52	–	High H High M	High H High M	CC(NC(=O)N(C)C1CCN(C)CC1)c1ccc(-c2cncc(C3=CCCC3)c2)c(Cl)c1Cl (stereo not shown) [Compound H0705, 3-(1-(2,3-dichloro-4-(5-(cyclopent-1-en-1-yl)pyridin-3-yl)phenyl)ethyl)-1-methyl-1-(1-methylpiperidin-4-yl)urea]	–	–	–	–	–	–
7.00	< 4.52	–	Medium H Medium M	Medium H Medium M	CC(NC(=O)N(C)C1CCN(C)CC1)c1ccc(-c2cccc(C#N)c2)c(Cl)c1Cl (stereo not shown) [Compound H0610, 3-(1-(2,3-dichloro-3′-cyano-[1,1′-biphenyl]-4-yl)ethyl)-1-methyl-1-(1-methylpiperidin-4-yl)urea]	–	–	–	–	–	–
7.17	7.09	2489	Medium H Medium M	Medium H Medium M	CC(NC(=O)N(C)C1CCN(C)CC1)c1ccc(-c2ccsc2)c2ccccc12 (stereo not shown) [Compound H0574, 1-methyl-1-(1-methylpiperidin-4-yl)-3-(1-(4-(thiophen-3-yl)naphthalen-1-yl)ethyl)urea]	–	–	–	–	–	–
8.52	8.22	–	Medium H Medium M	Medium H Medium M	CC(NC(=O)N(C)C1CCN(C)CC1)c1ccc(I)c(Cl)c1Cl (stereo not shown) [Compound H0519, 3-(1-(2,3-dichloro-4-iodophenyl)ethyl)-1-methyl-1-(1-methylpiperidin-4-yl)urea]	–	–	–	–	–	–
